“And” between values parts separate entries of the source, which are not always exact repeats. Equal entries are not always repeated.
Key:
[1] = Absorption and fluorescence emission spectra in DMF; format: physicochemical; details: in DMF
Protocol: An absorption spectrum of 2.475 mL of solvent (water, DMF, or PBS) was taken (i.e., absorption spectrum of baseline); then, 25 μL of stock solution was added to reach the final concentration of 1 μM in the cuvette, and the absorption and emission spectra were taken. Baseline of the solvent was subtracted from the obtained absorption spectrum to get the final absorption spectrum of the sample.

[2] = Fluorescence quantum yield, comparative method; format: physicochemical; details: in DMF; ZnPc as reference
Protocol: The fluorescence quantum yields (ΦF) were determined by a comparative method with ZnPc as the reference (ΦF = 0.32 in THF). The ΦF values were calculated using the following formula: ϕFS=ϕFR(F^S/F^R)(1−10^−A^R/1−10^−A^S)(η^S/η^R)^2 where F is the integrated area under the emission spectrum and A is the absorbance at the excitation wavelength. Superscripts R and S indicate the reference and sample, respectively. η stands for the refractive index of the solvent. Absorption in the Q-band was kept below 0.05 to eliminate the inner filter effect. Excitation wavelengths were the same as those used for emission spectra (see above). The emission wavelengths were set to their emission maxima to avoid exceeding the detector limit with stimated error ± 15%.

[3] = Fluorescence lifetime in DMF; format: physicochemical
From the text: 1 Photophysical Data of Investigated Derivatives in DMF ^a | column: τF1/ns; τF2/ns

[4] = Quantum yield of singlet oxygen production, comparative method with DPBF scavenger; format: physicochemical; details: in DMF, ZnPc as reference
Protocol: Eight μL of the 100 μM stock solution of the dye in DMF (or DMF + water or water; see above) was added. A xenon lamp (100 W, ozone free XE DC short arc lamp, New port) was used to irradiate the sample while stirring. The incident light was filtered through a water filter (6 cm) and cut off filter OG530 eliminating heat and light under 523 nm, respectively. […] The decrease of DPBF in solution with irradiation time was monitored at 415 nm. The values of ΦΔ of the dyes were calculated by the following equation: φΔS=φΔ[…] is the slope of the plot of the dependence of ln([…] 0 and A t being the absorbances of the DPBF at 415 nm before irradiation and after irradiation time t, respectively. I aT is the total amount of light absorbed by the dye sample. Superscripts R and S indicate the reference and sample, respectively. I aT is calculated as a sum of intensities of the absorbed light I a at wavelengths from 523 to 850 nm (step 0.5 nm). Light under 523 nm is completely filtered by an OG530 filter, and light above 850 nm is not absorbed by the studied dye sample. I a at a given wavelength is calculated using Beer-Lambert'[…]) where I 0 is transmittance of the filter at the given wavelength and A is the absorbance of the dye at this wavelength. All experiments were performed three times, and the data presented is the mean value of the three obtained results with estimated error ± 10%.

[5] = biological target: bovine serum albumin (BSA) (Bos taurus, UniProt P02769); assay: Interaction with bovine serum albumin (absorption and emission spectra in PBS); format: binding; details: 1 μM Pc in PBS, BSA 17.5, 35 and 100 μM
Chain of bovine serum albumin (BSA) (P02769 25-607): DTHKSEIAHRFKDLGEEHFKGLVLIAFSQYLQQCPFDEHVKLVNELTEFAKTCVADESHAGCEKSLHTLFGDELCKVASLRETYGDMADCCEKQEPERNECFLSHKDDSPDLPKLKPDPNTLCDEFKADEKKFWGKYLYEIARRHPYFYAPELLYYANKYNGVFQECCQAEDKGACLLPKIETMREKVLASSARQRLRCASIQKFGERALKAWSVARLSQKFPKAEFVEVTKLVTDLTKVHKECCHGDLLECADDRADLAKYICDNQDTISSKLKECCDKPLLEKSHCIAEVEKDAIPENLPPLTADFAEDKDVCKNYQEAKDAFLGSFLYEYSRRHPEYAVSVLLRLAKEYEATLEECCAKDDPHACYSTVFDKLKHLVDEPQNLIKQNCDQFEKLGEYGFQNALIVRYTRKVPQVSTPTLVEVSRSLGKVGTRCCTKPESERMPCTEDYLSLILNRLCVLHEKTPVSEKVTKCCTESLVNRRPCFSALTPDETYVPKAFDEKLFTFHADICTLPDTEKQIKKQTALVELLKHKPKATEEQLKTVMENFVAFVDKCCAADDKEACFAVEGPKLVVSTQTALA

[6] = test system: HeLa (human cervical carcinoma); assay: Photodynamic activity (phototoxicity, neutral red uptake) on HeLa; format: cell-based; details: 12 h incubation, Xe-lamp 15 min, λ > 570 nm, 11.2 J/cm^2; mean ± SD; t.w. = this work
Protocol: (§1) Detailed in vitro studies involving subcellular localization and determination of the EC50 in three different cell lines (human cervical carcinoma–HeLa, human breast adenocarcinoma–MCF-7, and human skin melanoma–SK-MEL-28) were performed. A broadband light source (ozone-free 450 W Xe-lamp, Newport) equipped with the long-pass filter Schott OG570 was used (12.4 mW/cm^2, 15 min, 11.2 J/cm^2).
(§2) For the cytotoxicity experiments (phototoxicity), cells were seeded at 100 μL per well into 96-well plates (TPP, Switzerland) at a density of 7.5 × 10^3 (HeLa) or 1.0 × 10^4 (MCF-7 and SK-MEL-28) cells per well. Cells were left to grow for 24 h (until they reached confluency) in a controlled environment of a CO2 incubator (37 °C, 5% CO2 atmosphere, constant high humidity). Subsequently, studied compounds were added in a wide concentration range and incubated with the cells for 12 h. Cells were washed; fresh cell culture medium was added, and the cells were irradiated using a 450 W Xe lamp (Newport, USA). The lamp was equipped with a long pass filter (Newport OG570) and an 8 cm water filter (λ > 570 nm, 12.4 mW/cm^2, 15 min, 11.2 J/cm^2). Cellular viability was assessed after an additional 24 h by the neutral red (NR; Sigma, Merck, USA) uptake assay. At least three independent experiments, each in triplicate, were performed. The soluble NR was measured at λ = 540 nm using a Tecan Infinite 200 M plate reader (Tecan, Austria). The viability of each experimental group was expressed as the percentage of the untreated cells (100% viability) after subtraction of the signal from cells treated with a lethal dose of hydrogen peroxide (0% viability). […] EC50 values were calculated, and graphs were created by using GraphPad Prism 10.3.1 (Graph Pad software, USA).

[7] = test system: MCF-7 (human breast adenocarcinoma); assay: Photodynamic activity (phototoxicity, neutral red uptake) on MCF-7; format: cell-based; details: 12 h incubation, Xe-lamp 15 min, λ > 570 nm, 11.2 J/cm^2; mean ± SD; t.w. = this work
Protocol: as §1, §2

[8] = test system: SK-MEL-28 (human skin melanoma); assay: Photodynamic activity (phototoxicity, neutral red uptake) on SK-MEL-28; format: cell-based; details: 12 h incubation, Xe-lamp 15 min, λ > 570 nm, 11.2 J/cm^2; mean ± SD; t.w. = this work
Protocol: as §1, §2

[9] = Log P, partition between n-octanol and PBS; format: physicochemical; details: partition coefficient between 1-octanol and PBS
Protocol: 400 μL portion of n-octanol and 400 μL of PBS buffer were mixed in a plastic Eppendorf vial. Then, 20 μL of the 100 μM stock solution of the sample (see above) was added to this mixture, vortexed for 5 min at rt, and then centrifuged for 10 min (10 000 rpm, rt). 50 μL of each of these layers was taken into 2.5 mL of DMF in a quartz cuvette, and their emission spectra (excitation wavelengths in Table ) were recorded. The log P value was then computed using the area under the curve of the emission spectra of n-octanol (F oct) and PBS buffer (F PBS) layers as follows: logP=log(Foct/FPBS) Triplicate measurements were performed, and the data reported are the mean of the obtained results.

Row | Compound | ε, extinction coefficient [1] | λA, absorption maximum in the Q-band [1] [nm] | λF, fluorescence emission maximum [1] [nm] | ΦF, fluorescence quantum yield [2] | τF1, fluorescence lifetime (relative amplitude in brackets) [3] | ΦΔ, quantum yield of singlet oxygen production [4] | Interaction with BSA: disaggregation/monomerization and changes in absorption and fluorescence emission spectra [5] | EC50 [6] [nM] | EC50 [7] [nM] | EC50 [8] [nM] | τF2, fluorescence lifetime (relative amplitude in brackets) [3] | Log P [9]
1 | COCCOCCOCCOCCOc1ccc(OCCOCCOCCOCCOC)c2c1C1=NC2=Nc2c3ccccc3c3[n]2[Zn][n]2c(c4ccccc4c2=N1)=NC1=NC(=N3)c2ccccc21 [N1Zn] | 82 550 M^–1cm^–1 | 689 | 702 | 0.24 | 2.41 ns | 0.67 | monomerization was apparent even from the absorption spectra | 17 ± 5 | 6 ± 1 | 16 ± 3 |  | 
2 | OCc1cc(CO)cc(OCCCCSC2=C(SCCCCOc3cc(CO)cc(CO)c3)C3=Nc4c5ccccc5c5[n]4[Mg][n]4c(c6ccccc6c4=NC4=NC(=N5)c5ccccc54)=NC2=N3)c1 [N2Mg] | 15 950 M^–1cm^–1 | 684 | 687 | 0.16 | 1.29 (25%) ns | 0.17 | fluorescence was slightly enhanced | 107 ± 1 | 190 ± 40 | 119 ± 14 | 3.39 (75%) ns | 
3 | C[n+]1cccc(Oc2ccc3c(c2)C2=NC3=Nc3c4cc(Oc5ccc[n+](C)c5)ccc4c4[n]3[Zn][n]3c(c5ccc(Oc6ccc[n+](C)c6)cc5c3=NC3=NC(=N4)c4cc(Oc5ccc[n+](C)c5)ccc43)=N2)c1.[I-].[I-].[I-].[I-] [C5Zn-I] | 130 860 M^–1cm^–1 | 674 | 682 | 0.25 | 2.38 (97%) ns | 0.49 |  | 62 ± 13 | 60 ± 10 | 110 ± 10 | 6.53 (3%) ns | –2.19
4 | C[n+]1cccc(Oc2ccc3c(c2)C2=NC3=Nc3c4cc(Oc5ccc[n+](C)c5)ccc4c4[n]3[Zn][n]3c(c5ccc(Oc6ccc[n+](C)c6)cc5c3=NC3=NC(=N4)c4cc(Oc5ccc[n+](C)c5)ccc43)=N2)c1.F[P-](F)(F)(F)(F)F.F[P-](F)(F)(F)(F)F.F[P-](F)(F)(F)(F)F.F[P-](F)(F)(F)(F)F [C5Zn-PF 6] | 86 800 M^–1cm^–1 | 674 | 682 | 0.28 | 2.32 (97%) ns | 0.45 |  | 52 ± 26 | 100 ± 20 | 190 ± 40 | 6.31 (3%) ns | –2.37
5 | NCCc1ccc(Oc2cccc3c2C2=NC3=Nc3c4ccccc4c4[n]3[Zn][n]3c(c5ccccc5c3=N2)=NC2=NC(=N4)c3ccccc32)cc1 [C15Zn] | 136 590 M^–1cm^–1 | 675 | 684 | 0.20 | 1.23 (7%) ns | 0.53 | Partial monomerization | 74 ± 22 | 50 ± 8 | 25 ± 6 | 2.96 (93%) ns | 3.32
6 | O=S(=O)([O-])c1cc(S(=O)(=O)[O-])c2cc(Oc3cccc4c3C3=NC4=Nc4c5c(Oc6ccc7cc(S(=O)(=O)[O-])cc(S(=O)(=O)[O-])c7c6)cccc5c5[n]4[Zn][n]4c(c6cccc(Oc7ccc8cc(S(=O)(=O)[O-])cc(S(=O)(=O)[O-])c8c7)c6c4=NC4=NC(=N5)c5c(Oc6ccc7cc(S(=O)(=O)[O-])cc(S(=O)(=O)[O-])c7c6)cccc54)=N3)ccc2c1.[Na+].[Na+].[Na+].[Na+].[Na+].[Na+].[Na+].[Na+] [A7Zn] | 109 950 M^–1cm^–1 | 696 | 707 | 0.23 |  | 0.55 | complete | 1300 ± 400 | 5100 ± 350 | 2120 ± 560 |  | –2.92
7 | C[n+]1cccc(Oc2ccc3c(c2)C2=NC3=Nc3c4cc(Oc5ccc[n+](C)c5)ccc4c4[n]3[Zn][n]3c(c5ccc(Oc6ccc[n+](C)c6)cc5c3=NC3=NC(=N4)c4cc(Oc5ccc[n+](C)c5)ccc43)=N2)c1.O=S(=O)(O)O.O=S(=O)(O)O.O=S(=O)([O-])[O-].O=S(=O)([O-])[O-] [C5Zn-SO 4] | 82 140 M^–1cm^–1 | 674 | 682 | 0.077 and 0.08 | 2.47 (94%) ns | 0.28 |  | 53 ± 9 | 80 ± 30 | 150 ± 50 | 4.93 (6%) ns | –3.57

From PMC12951568, “Identifying Structural Factors Governing the Photodynamic Activity of Phthalocyanines” (Journal of Medicinal Chemistry, 2026)
